This experiment relates to γ-secretase. In words: Western blot of nectin-1 C-terminal fragments in hippocampal neurons overexpressing flag tagged nectin-1, treated with γ-secretase inhibitor. To be noted: 0.5 and 1 μM inhibitor, 24 hrs, transduced hippocampal neurons at 21 DIV. Format: cell-based, rat. The protocol: Hippocampal neurons were plated at a density of 1.3×10^5 cells. The neurons at 21 DIV were transduced with an adenovirus vector expressing a C-terminal flag tagged nectin-1 for 24 hrs at a MOI of 50. Neurons were treated without (FIG. 3, lanes 1 and 2) or with 0.5 μM (FIG. 3, lanes 3 and 4) and 1 μM γ-secretase inhibitor X (FIG. 3, lanes 5 and 6) for 24 hrs. These cells were harvested in reducing sample buffer and analyzed on a 10% SDS-PAGE gel.
Technical difficulties preclude detection of endogenous C-terminal fragments, particularly the 35 and 24 kDa forms due to low expression levels in neurons. To circumvent this, C-terminal Flag tagged nectin-1 was over expressed in neurons as described above.
(Immunoblotting shows a protein as a band on a membrane.)

SMILES strings stand for the structures.

Regarding `CC(C)C[C@H](NC(=O)[C@H](Cc1ccccc1)C[C@@H](O)[C@H](Cc1ccccc1)NC(=O)OC(C)(C)C)C(=O)N[C@@H](Cc1ccccc1)C(N)=O` [γ-secretase inhibitor X], the “density of the 24 kDa nectin-1 band” value is “reduced”; the “density of the 37, 34 and 30 kDa nectin-1 bands” value is “increased”.

The record behind these values is patent publication US20100285597A1, “DETECTION OF FRAGMENTS OF NECTIN-1 FOR THE DIAGNOSIS OF ALZHEIMER'S DISEASE” (UNIVERSITY OF ROCHESTER, priority 2007, published 2010).
